Measurements: ChEMBL document CHEMBL1201862, “PubChem BioAssay data set” (2004)
Where a name gives a salt, the structure may show the parent alone. Calls of active or inactive are those of the source.

Legend:
[1] = reduction of Shn3 3'UTR-driven luciferase in osteoblasts – cell-based, Clone20 osteoblasts, firefly luciferase, cherry-picked, dose response (AID 624132); format: functional;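 further: firefly luciferase luminescence from reporter carrying the Shn3 3'UTR in osteoblasts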
[2] = Shn3 3'UTR reporter signal decrease – cell-based, Clone20 osteoblasts, firefly luciferase, cherry-pick, set 2, Schnurri-3 inhibitor project, dose response (AID 720490); format: functional;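 further: actives lower the luminescence signal as inhibitors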
[3] = PAX5 cellular inhibition readout – cell-based, plate reader, dry powder samples, selectivity assay for PAX8 inhibitor project, dose response (AID 743047); format: functional;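 further: HEK293 cells carrying a Pax5 driven CD19 promoter luciferase reporter; potency of inhibitors that lower reporter luminescence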
Paired box protein Pax-8 = Paired box protein Pax-8 (Homo sapiens, UniProt Q06710); assay: PAX8 transcriptional activity inhibition in RMG-I – RMG-I cells, luciferase, cherry-pick, dose response (AID 687027); format: functional, cell-based;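 further: luciferase reporter driven by Pax8 target thyroperoxidase promoter measured by SteadyGlo luminescence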
[4] = COV362 cell viability loss – plate reader, dry powder, SA12, cytotoxicity control for PAX8 inhibitor project, dose response (AID 743144); format: functional, cell-based
[5] = IGROV1 cell killing – plate reader, dry powder samples, PAX8 inhibitor project, dose response (AID 743043); format: functional, cell-based; settings: IGROV-1
[6] = OVCAR4 cell viability loss – plate reader, dry powder, SA11, cytotoxicity control for PAX8 inhibitor project, dose response (AID 743150); format: functional, cell-based; settings: OVCAR-4
[7] = toxicity toward immortalized ovarian surface epithelium – cell-based, plate reader, dry powder samples, cytotoxicity control for PAX8 inhibitor project, dose response (AID 743045); format: functional
[8] = OVCAR-3 cell viability loss – plate reader, dry powder samples, PAX8 inhibitor project, dose response (AID 743044); format: functional, cell-based
[9] = A2780 cell killing – plate reader, dry powder samples, cytotoxicity control, dose response (AID 743046); format: functional, cell-based
[10] = OV-90 cell viability loss – plate reader, dry powder, SA8, PAX8 inhibitor project, dose response (AID 743149); format: functional, cell-based
[11] = inhibitors acting on PAX2 in cells – cell-based, plate reader, dry powder samples, selectivity assay for PAX8 inhibitor project, dose response (AID 743048); format: functional;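 further: HEK293 cells carrying a WT1 promoter luciferase reporter driven by expressed Pax2; potency is for inhibition of Pax2 driven reporter signal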
[12] = PAX8-dependent cell viability loss – plate reader, dry powder, dose response (AID 743049); format: functional, cell-based
[13] = COV434 cell viability loss – plate reader, dry powder, SA7, cytotoxicity control for PAX8 inhibitor project, dose response (AID 743145); format: functional, cell-based
[14] = biological target: COUP transcription factor 2 (Homo sapiens, UniProt P24468); assay: Luminescence-based cell-based high throughput dose response assay to identify inhibitors of COUP-TFII (NR2F2).; format: functional;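 further: HEK293 cells transiently cotransfected with COUP-TFII expression vector and reporter; luciferase reporter luminescence driven by COUP-TFII from the pX2-168 reporter plasmid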
[15] = biological target: T1, Oxysterols receptor LXR-beta (Homo sapiens, UniProt P55055); format: functional, cell-based;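 further: Cell-based luminescence dose-response assay of agonist activity at LXR, run as a confirmatory counterscreen to a daf-12 agonist screen; HEK293 cells with Gal4-LXR fusion and GAL4-driven luciferase reporter; agonist potency from rising luciferase signal of a Gal4-LXR reporter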
T1 sequence (P55055 whole entry): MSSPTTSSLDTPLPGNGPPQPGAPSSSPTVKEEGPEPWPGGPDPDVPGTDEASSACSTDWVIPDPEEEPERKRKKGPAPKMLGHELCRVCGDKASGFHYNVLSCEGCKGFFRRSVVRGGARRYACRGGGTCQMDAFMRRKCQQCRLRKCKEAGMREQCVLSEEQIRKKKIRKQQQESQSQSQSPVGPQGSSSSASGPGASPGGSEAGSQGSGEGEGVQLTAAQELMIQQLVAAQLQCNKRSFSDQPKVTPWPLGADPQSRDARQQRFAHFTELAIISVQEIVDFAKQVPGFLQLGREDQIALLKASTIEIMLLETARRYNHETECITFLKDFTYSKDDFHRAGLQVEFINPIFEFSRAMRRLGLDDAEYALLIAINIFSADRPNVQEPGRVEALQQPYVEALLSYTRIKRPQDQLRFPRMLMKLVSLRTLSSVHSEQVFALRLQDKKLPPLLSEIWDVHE

Protein skinhead-1 = biological target: T2, Protein skinhead-1 (Caenorhabditis elegans, UniProt P34707); format: functional
T2 sequence (P34707 whole entry): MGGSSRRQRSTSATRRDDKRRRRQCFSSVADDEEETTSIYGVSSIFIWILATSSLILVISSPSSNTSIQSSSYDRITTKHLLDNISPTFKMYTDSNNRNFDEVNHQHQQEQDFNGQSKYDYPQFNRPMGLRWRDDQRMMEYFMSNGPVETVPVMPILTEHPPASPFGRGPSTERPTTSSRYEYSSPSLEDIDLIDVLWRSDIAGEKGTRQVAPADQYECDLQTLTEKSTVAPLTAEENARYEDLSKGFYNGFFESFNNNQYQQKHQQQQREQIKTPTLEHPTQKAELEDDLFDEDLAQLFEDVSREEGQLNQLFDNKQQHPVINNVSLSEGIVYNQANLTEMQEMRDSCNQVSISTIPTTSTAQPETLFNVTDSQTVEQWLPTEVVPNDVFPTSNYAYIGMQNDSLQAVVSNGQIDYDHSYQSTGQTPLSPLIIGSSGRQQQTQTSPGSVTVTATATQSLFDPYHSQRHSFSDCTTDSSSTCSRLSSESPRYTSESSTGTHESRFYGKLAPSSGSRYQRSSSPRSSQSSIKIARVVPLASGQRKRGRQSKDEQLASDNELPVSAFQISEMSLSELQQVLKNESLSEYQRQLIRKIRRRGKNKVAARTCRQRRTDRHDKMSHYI

cells [16] = assay: cells
[17] = LMP1-induced NF-kB luciferase signal inhibition – cell-based, EBV LMP1, dry powder, set 2, dose response (AID 624361); format: functional
[18] = biological target: NAD-dependent protein deacylase sirtuin-5, mitochondrial (Homo sapiens, UniProt Q9NXA8); assay: blockers of sirtuin-5 peptide desuccinylation – biochemical, fluorescence imaging, cherry-pick, set 6, dose response (AID 720597)
[19] = inhibitors of non-replicating M. tuberculosis, dose response, luciferase, dry powder (AID 651620); format: functional; settings: Mycobacterium tuberculosis
[20] = inhibitors of non-replicating M. tuberculosis, dose response, luciferase, dry powder (AID 651619); format: functional; settings: Mycobacterium tuberculosis
[21] = biological target: T3, DNA repair and recombination protein RAD54-like (Homo sapiens, UniProt Q92698); assay: RAD54 Holliday junction migration blockers – biochemical, fluorescence, cherry-picked samples, dose series, confirmation (AID 651657); format: functional
T3 sequence (Q92698 whole entry): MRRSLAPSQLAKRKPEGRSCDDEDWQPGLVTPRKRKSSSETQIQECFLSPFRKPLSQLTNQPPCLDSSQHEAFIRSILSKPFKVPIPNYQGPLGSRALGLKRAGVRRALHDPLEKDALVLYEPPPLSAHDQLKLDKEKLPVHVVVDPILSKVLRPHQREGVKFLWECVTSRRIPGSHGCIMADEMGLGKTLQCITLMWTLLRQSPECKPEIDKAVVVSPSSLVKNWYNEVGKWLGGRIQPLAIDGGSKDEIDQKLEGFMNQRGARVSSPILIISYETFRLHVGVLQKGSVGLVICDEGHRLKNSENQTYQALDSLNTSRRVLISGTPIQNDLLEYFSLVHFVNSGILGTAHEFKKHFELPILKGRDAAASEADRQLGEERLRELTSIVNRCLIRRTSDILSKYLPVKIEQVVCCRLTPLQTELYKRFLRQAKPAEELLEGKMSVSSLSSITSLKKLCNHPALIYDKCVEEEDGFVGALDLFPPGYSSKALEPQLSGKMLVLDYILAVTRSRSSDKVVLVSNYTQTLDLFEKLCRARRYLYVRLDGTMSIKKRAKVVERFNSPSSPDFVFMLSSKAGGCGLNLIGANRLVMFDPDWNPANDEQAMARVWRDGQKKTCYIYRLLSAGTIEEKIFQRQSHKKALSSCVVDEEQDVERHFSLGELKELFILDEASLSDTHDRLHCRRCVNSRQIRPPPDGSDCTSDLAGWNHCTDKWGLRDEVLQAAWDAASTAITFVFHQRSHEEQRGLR

[22] = Counterscreen for activators of the function of SWI/SNF related, matrix associated, actin dependent regulator of chromatin, subfamily a, member 2 (SMARCA2, BRM): Luminescence-based cell-based high throughput dose response assay to identify non-selective compounds using the VP16 reporter assay.; format: functional
cells [23] = settings: HEK293
[24] = Luminescence Cell-Based Dose Response HTS to Identify Inhibitors of 5'UTR Stem-Loop Driven Prion Protein mRNA Translation in H4 Neuroglioblastoma Cells. [Related pubchem assays: 1827 (Project Summary), 1813 (Primary HTS)]; format: functional
HEK293 [25] = assay: cells; settings: Homo sapiens
[26] = viability loss in HepG2 liver cells – cell-based, ATP luminescence, cherry-pick, set 6, cytotoxicity control, dose response (AID 1053125); format: functional
[27] = luciferase reporter signal suppression in cells – H4 neuroglioma cells, luminescence, dose response (AID 1990); format: functional, cell-based
HEK293 [28] = assay: cells; settings: Homo sapiens; remark: listed apart in the source
[29] = biological target: DNA repair protein RAD52 homolog (Homo sapiens, UniProt P43351); format: functional, biochemical
cells [30] = settings: A549
cells [31] = assay: cells; remark: listed apart in the source
[32] = biological target: SWI/SNF-related matrix-associated actin-dependent regulator of chromatin subfamily A member 2 (Homo sapiens, UniProt P51531); assay: Luminescence-based cell-based high throughput dose response assay to identify activators of the function of SWI/SNF related, matrix associated, actin dependent regulator of chromatin, subfamily a, member 2 (SMARCA2, BRM).; format: functional
Sequence of SWI/SNF-related matrix-associated actin-dependent regulator of chromatin subfamily A member 2 (P51531 whole entry): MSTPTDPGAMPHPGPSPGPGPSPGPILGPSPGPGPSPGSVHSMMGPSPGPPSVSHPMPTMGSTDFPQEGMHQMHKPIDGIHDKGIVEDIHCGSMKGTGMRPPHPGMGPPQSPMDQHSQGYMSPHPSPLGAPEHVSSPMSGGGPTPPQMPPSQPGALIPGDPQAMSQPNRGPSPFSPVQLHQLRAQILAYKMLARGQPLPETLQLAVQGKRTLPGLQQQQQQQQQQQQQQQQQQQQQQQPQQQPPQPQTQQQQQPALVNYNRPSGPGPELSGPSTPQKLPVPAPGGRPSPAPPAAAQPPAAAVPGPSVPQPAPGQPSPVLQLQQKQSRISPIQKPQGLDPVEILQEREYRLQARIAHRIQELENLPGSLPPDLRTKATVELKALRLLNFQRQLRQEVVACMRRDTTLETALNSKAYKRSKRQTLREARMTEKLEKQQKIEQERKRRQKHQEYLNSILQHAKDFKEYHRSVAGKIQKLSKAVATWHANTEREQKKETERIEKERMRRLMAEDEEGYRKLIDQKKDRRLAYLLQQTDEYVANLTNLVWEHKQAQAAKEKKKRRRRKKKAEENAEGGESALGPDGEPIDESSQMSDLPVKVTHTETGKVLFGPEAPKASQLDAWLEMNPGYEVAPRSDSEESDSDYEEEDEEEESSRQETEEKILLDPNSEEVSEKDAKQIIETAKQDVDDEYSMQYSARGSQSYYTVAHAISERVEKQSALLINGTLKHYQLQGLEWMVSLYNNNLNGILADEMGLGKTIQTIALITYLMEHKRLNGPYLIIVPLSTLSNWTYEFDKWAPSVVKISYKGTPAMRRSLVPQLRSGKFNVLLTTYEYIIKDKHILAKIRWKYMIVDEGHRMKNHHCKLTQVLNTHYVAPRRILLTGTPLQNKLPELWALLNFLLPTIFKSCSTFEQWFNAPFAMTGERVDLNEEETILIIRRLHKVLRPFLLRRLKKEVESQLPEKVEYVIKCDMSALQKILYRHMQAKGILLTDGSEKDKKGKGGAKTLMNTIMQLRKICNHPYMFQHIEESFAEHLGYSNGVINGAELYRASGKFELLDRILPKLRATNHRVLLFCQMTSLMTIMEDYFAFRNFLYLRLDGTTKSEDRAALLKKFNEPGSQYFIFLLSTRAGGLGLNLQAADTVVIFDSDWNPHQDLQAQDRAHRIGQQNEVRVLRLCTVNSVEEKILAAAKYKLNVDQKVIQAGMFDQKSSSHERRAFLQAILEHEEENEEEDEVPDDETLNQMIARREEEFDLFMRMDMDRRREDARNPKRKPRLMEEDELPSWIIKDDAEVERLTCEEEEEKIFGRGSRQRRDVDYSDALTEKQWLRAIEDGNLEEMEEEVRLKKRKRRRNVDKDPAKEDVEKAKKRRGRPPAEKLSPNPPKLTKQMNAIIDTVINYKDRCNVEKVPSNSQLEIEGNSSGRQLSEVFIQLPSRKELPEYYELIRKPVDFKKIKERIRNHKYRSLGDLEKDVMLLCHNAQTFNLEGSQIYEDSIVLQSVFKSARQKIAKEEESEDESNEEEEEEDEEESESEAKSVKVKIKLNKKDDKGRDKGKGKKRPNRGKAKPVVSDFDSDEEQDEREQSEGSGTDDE

Sequence of NAD-dependent protein deacylase sirtuin-5, mitochondrial (Q9NXA8 whole entry): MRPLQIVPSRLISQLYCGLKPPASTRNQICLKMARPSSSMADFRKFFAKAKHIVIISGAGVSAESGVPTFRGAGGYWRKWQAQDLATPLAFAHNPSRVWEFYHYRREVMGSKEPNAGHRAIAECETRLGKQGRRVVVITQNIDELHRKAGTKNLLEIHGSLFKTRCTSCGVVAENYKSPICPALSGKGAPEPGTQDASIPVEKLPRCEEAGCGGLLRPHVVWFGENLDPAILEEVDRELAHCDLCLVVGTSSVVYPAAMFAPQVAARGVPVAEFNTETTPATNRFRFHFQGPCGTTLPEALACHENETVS
Sequence of COUP transcription factor 2 (P24468 whole entry, the tested form may be a part): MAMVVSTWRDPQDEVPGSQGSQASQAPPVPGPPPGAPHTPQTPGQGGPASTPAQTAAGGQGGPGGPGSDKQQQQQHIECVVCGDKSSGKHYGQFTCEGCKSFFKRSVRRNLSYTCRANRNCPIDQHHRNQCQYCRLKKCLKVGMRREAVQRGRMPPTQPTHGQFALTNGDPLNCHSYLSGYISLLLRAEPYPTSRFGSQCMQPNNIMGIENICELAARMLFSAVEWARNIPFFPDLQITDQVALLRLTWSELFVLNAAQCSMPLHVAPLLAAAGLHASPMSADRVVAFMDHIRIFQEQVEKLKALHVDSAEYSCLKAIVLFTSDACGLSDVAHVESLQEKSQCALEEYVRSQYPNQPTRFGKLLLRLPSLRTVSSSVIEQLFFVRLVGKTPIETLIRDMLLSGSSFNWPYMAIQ
Sequence of DNA repair protein RAD52 homolog (P43351 whole entry): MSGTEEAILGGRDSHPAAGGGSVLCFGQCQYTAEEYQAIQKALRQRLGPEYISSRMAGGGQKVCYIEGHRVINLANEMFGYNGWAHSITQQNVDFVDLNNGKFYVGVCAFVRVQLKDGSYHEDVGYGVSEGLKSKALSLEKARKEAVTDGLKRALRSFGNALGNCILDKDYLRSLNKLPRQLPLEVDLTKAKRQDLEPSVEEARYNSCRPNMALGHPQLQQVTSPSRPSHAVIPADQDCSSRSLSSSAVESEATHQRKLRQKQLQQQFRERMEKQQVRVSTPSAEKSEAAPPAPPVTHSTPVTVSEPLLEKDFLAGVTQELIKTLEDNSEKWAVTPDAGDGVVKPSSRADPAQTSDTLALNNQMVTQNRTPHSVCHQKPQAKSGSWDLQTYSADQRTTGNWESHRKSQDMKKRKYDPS
Sequence of Paired box protein Pax-8 (Q06710 whole entry): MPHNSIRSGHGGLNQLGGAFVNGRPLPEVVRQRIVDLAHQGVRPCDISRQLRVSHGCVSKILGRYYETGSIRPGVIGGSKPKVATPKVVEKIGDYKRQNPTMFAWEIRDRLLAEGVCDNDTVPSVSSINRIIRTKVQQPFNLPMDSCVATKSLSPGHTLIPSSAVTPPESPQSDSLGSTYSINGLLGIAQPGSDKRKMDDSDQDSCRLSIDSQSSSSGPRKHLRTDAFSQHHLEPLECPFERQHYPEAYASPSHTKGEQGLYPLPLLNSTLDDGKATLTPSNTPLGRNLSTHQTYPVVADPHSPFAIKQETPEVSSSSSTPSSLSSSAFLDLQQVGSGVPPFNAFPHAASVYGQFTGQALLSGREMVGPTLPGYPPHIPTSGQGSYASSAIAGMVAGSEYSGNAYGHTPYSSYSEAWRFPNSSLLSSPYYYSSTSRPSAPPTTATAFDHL

What does the source list for `COc1ccc(CNC(=O)C(c2ccc(C)cc2)N(Cc2cccs2)C(=O)c2ccc3c(c2)OCCO3)cc1` (centres undefined)?
AC50 [1]: 8.1 µM (active); AC50 [2]: 13.8 µM (active)

What does the source list for `COc1ccc(/C=C/C(=O)c2cc(F)ccc2OC(=O)c2ccccc2C)cc1OC`?
AC50 [3]: 31.1 µM (active); AC50 (Paired box protein Pax-8): 1.74 µM (active); AC50 [4]: 2.52 µM (active); AC50 [5]: 3.26 µM (active); AC50 [6]: 1.71 µM (active); AC50 [7]: 4.08 µM (active); AC50 [8]: 13.2 µM (active); AC50 [9]: 3.22 µM (active); AC50 [10]: 4.08 µM (active); AC50 [11]: > 100 µM (inactive); AC50 [12]: 5.56 µM (active); AC50 [13]: 1.79 µM (active)

For `CCN(CC)S(=O)(=O)c1ccc(/C=C/C(=O)Nc2ccc(Br)cc2F)cc1`, which IC50 [14] is on record?
The IC50 was 5.05 µM (active).

With `Fc1ccc(-c2nnc(-c3ccc4ccccc4c3)o2)cc1` as the compound, how does the EC50 [15] read?
Its EC50 is > 67.5 µM (inactive).

What about the IC50 (Protein skinhead-1) of the same compound?
Its IC50 is > 100 µM (inactive).

What about the EC50 (cells [16]) of the same compound?
Its EC50 is > 67.5 µM (inactive).

Which AbsAC35 [17] does the source give for `Cc1noc(C)c1S(=O)(=O)Nc1ccc2c(c1)C(=O)N([C@H](C)CO)C[C@@H](C)[C@H](CN(C)Cc1ccc(C(F)(F)F)cc1)OCCCC[C@@H](C)O2` here?
Its AbsAC35 is 39.54 µM.

And the AC50 [18]?
Its AC50 is > 30 µM (inactive).

Which results are given for `[O-][n+]1ccccc1CSc1nnc(-c2ccccc2)o1`?
IC90 [19]: 31 µM (active); IC90 [20]: 31 µM (active)

With `Nc1c2ccccc2nc2ccccc12` [AMINACRINE HYDROCHLORIDE] as the compound, how does the AC50 [21] read?
Its AC50 is 2.76 µM (active).

What about the EC50 [22] of the same compound?
Its EC50 is > 91.1 µM (inactive).

What about the AC50 (cells [23]) of the same compound?
The AC50 was 2.57 µM (active).

And the EC50 [24]?
Its EC50 is > 60 µM (not active).

What about the EC50 (HEK293 [25]) of the same compound?
Its EC50 is > 59.7 µM (inactive).

And the AC50 [26]?
The AC50 was 7.15 µM (active).

What about the EC50 [27] of the same compound?
The EC50 was > 120 µM (not active).

What about the EC50 (HEK293 [28]) of the same compound?
Its EC50 is > 2.21 µM (active).

What about the AC50 [29] of the same compound?
The AC50 was < 1.92 µM (active).

And the AC50 (cells [30])?
Its AC50 is 4.06 µM (active).

And the AC50 (cells [31])?
Its AC50 is 0.341 µM (active).

What about the EC50 [32] of the same compound?
Its EC50 is > 3.38 µM (active).
